pIC50: −log10 of the molar value. Each block holds one compound with its values, some of them ahead of it.
Columns and labels:
[1] = Selectivity index, ratio of CC50 for African green monkey Vero cells to IC50 for Trypanosoma cruzi trypomastigotes; type: toxicity; conditions: read-out: Ratio CC50/IC50
Leishmania donovani [2] = experiment: Potency index, ratio of Artemisinin IC50 to test compound IC50 for antileishmanial activity against Leishmania donovani promastigotes; type: functional
[3] = Selectivity index, ratio of CC50 for African green monkey Vero cells to IC50 for Leishmania donovani promastigotes; type: toxicity; conditions: read-out: Ratio CC50/IC50
Trypanosoma cruzi [4] = experiment: Antitrypanosomal activity against Trypanosoma cruzi trypomastigotes; type: functional, organism-based
Leishmania donovani [5] = experiment: Antileishmanial activity against Leishmania donovani promastigotes; type: functional, organism-based
Trypanosoma cruzi [6] = experiment: Antitrypanosomal activity against Trypanosoma cruzi epimastigotes; type: functional, organism-based
Vero = experiment: Cytotoxicity against African green monkey Vero cells up to 4.76 ug/ml by neutral red assay; type: cell-based; conditions: chlorocebus sabaeus, dose <=4.76 µg/ml
Trypanosoma cruzi [7] = experiment: Potency index, ratio of benznidazole IC50 to test compound IC50 for antitrypanosomal activity against Trypanosoma cruzi trypomastigotes; type: functional
[8] = Selectivity index, ratio of CC50 for African green monkey Vero cells to IC50 for Trypanosoma cruzi epimastigotes; type: toxicity; conditions: read-out: Ratio CC50/IC50
[9] = Cytotoxicity against African green monkey Vero cells by neutral red assay; type: cell-based; conditions: chlorocebus sabaeus
Trypanosoma cruzi [10] = experiment: Trypanocidal activity against Trypanosoma cruzi epimastigotes at 100 uM measured after 24 hrs; type: functional
Trypanosoma cruzi [11] = experiment: Potency index, ratio of artesunate IC50 to test compound IC50 for antitrypanosomal activity against Trypanosoma cruzi trypomastigotes; type: functional

pIC50 (Trypanosoma cruzi [4]): 4.99 | pIC50 (Leishmania donovani [5]): 5.27 | IC90 (Leishmania donovani [5]): 13.5 µM | pIC50 (Trypanosoma cruzi [6]): < 4.00
SMILES: CC(=O)CCCC(C)(C)C(=O)/C=C/C(=O)/C=C/c1ccc(C(=O)NCc2ccccc2)cc1
selectivity ratio [1]: ≥ 1.05 | Ratio IC50 (Leishmania donovani [2]): >10 | selectivity ratio [3]: 1.98

SMILES: COC(=O)c1ccc(/C=C/[C@]23C=C[C@@]4(OO2)C(C)(C)CCC(OC(C)=O)[C@]4(C)O3)cc1 (mixture of isomers)
Ratio IC50 (Leishmania donovani [2]): >10 | selectivity ratio [3]: 1.59 | pIC50 (Leishmania donovani [5]): 5.15 | IC90 (Leishmania donovani [5]): 15.2 µM | Activity (Vero): Non-Toxic

SMILES: CC1(C)CCC[C@]2(C)O[C@@]3(/C=C/c4ccc(C(=O)NCc5ccccc5)cc4)C=C[C@@]12OO3 (racemic)
Ratio IC50 (Trypanosoma cruzi [7]): 13 | selectivity ratio [1]: ≥ 9.21 | Ratio IC50 (Leishmania donovani [2]): >10 | selectivity ratio [8]: ≥ 4.3 | CC50 [9]: > 10.7 µM | Activity (Trypanosoma cruzi [10]): 100% | selectivity ratio [3]: 4.33 | pIC50 (Trypanosoma cruzi [4]): 5.94 | pIC50 (Leishmania donovani [5]): 5.61 | IC90 (Leishmania donovani [5]): 15.7 µM | pIC50 (Trypanosoma cruzi [6]): 5.61 | Ratio IC50 (Trypanosoma cruzi [11]): 10

SMILES: CC1(C)CC[C@H](O)[C@]2(C)O[C@@]3(/C=C/c4ccc(C(=O)NCc5ccccc5)cc4)C=C[C@@]12OO3 (racemic)
Ratio IC50 (Leishmania donovani [2]): >10 | CC50 [9]: ≥ 9.33 µM | selectivity ratio [3]: 2.69 | pIC50 (Leishmania donovani [5]): 5.46 | IC90 (Leishmania donovani [5]): 5.42 µM

SMILES: CC1(C)CC[C@@H](O)[C@]2(C)O[C@@]3(C)C=C[C@@]12OO3 (racemic)
pIC50 (Leishmania donovani [5]): < 4.00 | IC90 (Leishmania donovani [5]): > 100 µM

SMILES: CC1(C)CC=C[C@]2(C)O[C@@]3(C)C=C[C@@]12OO3 (racemic)
pIC50 (Leishmania donovani [5]): < 4.00 | IC90 (Leishmania donovani [5]): > 100 µM

SMILES: CC1(C)CC=C[C@]2(C)O[C@@]3(C)CC[C@@]12OO3 (racemic)
pIC50 (Leishmania donovani [5]): < 4.00 | IC90 (Leishmania donovani [5]): > 100 µM

SMILES: CC1(C)CCC(=O)[C@]2(C)O[C@@]3(C)C=C[C@@]12OO3 (racemic)
pIC50 (Leishmania donovani [5]): < 4.00 | IC90 (Leishmania donovani [5]): > 100 µM

SMILES: CC1(C)CC[C@@H](O)[C@]2(C)O[C@@]3(C)CC[C@@]12OO3 (racemic)
pIC50 (Leishmania donovani [5]): < 4.00 | IC90 (Leishmania donovani [5]): > 100 µM

SMILES: CC1(C)CC[C@@H](O)[C@]2(C)O[C@@]3(/C=C/c4ccc(C(=O)NCc5ccccc5)cc4)C=C[C@@]12OO3 (racemic)
Ratio IC50 (Trypanosoma cruzi [7]): 13 | selectivity ratio [1]: ≥ 16.6 | Ratio IC50 (Leishmania donovani [2]): >10 | selectivity ratio [8]: ≥ 3.88 | Activity (Trypanosoma cruzi [10]): 100% | selectivity ratio [3]: 1.36 | pIC50 (Trypanosoma cruzi [4]): 6.21 | pIC50 (Leishmania donovani [5]): 5.12 | IC90 (Leishmania donovani [5]): 15.2 µM | pIC50 (Trypanosoma cruzi [6]): 5.58 | Ratio IC50 (Trypanosoma cruzi [11]): 20 | Activity (Vero): Non-Toxic

SMILES: CC(=O)O[C@H]1CCC(C)(C)[C@@]23C=C[C@@](C)(OO2)O[C@@]13C (racemic)
pIC50 (Leishmania donovani [5]): < 4.00 | IC90 (Leishmania donovani [5]): > 100 µM

SMILES: CC1(C)CCC[C@]2(C)O[C@@]3(C)C=C[C@@]12OO3 (racemic)
pIC50 (Leishmania donovani [5]): < 4.00 | IC90 (Leishmania donovani [5]): > 100 µM

SMILES: CC1(C)CC[C@H](O)[C@]2(C)O[C@@]3(C)C=C[C@@]12OO3 (racemic)
pIC50 (Leishmania donovani [5]): < 4.00 | IC90 (Leishmania donovani [5]): > 100 µM

SMILES: CC(=O)O[C@@H]1CCC(C)(C)[C@@]23CC[C@@](C)(OO2)O[C@@]13C (racemic)
pIC50 (Leishmania donovani [5]): < 4.00 | IC90 (Leishmania donovani [5]): > 100 µM

SMILES: CC1(C)CCC(=O)[C@]2(C)O[C@@]3(C)CC[C@@]12OO3 (racemic)
pIC50 (Leishmania donovani [5]): < 4.00 | IC90 (Leishmania donovani [5]): > 100 µM

SMILES: COC(=O)c1ccc(/C=C/[C@]23C=C[C@@]4(OO2)C(C)(C)CCC[C@]4(C)O3)cc1 (racemic)
Ratio IC50 (Trypanosoma cruzi [7]): 13 | selectivity ratio [1]: ≥ 15.3 | Ratio IC50 (Leishmania donovani [2]): >10 | selectivity ratio [8]: ≥ 5.56 | CC50 [9]: > 12.8 µM | Activity (Trypanosoma cruzi [10]): 100% | selectivity ratio [3]: 1.54 | pIC50 (Trypanosoma cruzi [4]): 6.08 | pIC50 (Leishmania donovani [5]): 5.08 | IC90 (Leishmania donovani [5]): 18.9 µM | pIC50 (Trypanosoma cruzi [6]): 5.64 | Ratio IC50 (Trypanosoma cruzi [11]): 10

SMILES: CC1(C)CC[C@H](O)[C@]2(C)O[C@@]3(C)CC[C@@]12OO3 (racemic)
pIC50 (Leishmania donovani [5]): < 4.00 | IC90 (Leishmania donovani [5]): > 100 µM

SMILES: COC(=O)c1ccc(/C=C/[C@]23C=C[C@@]4(OO2)C(C)(C)CC[C@@H](O)[C@]4(C)O3)cc1 (racemic)
Ratio IC50 (Leishmania donovani [2]): >10 | CC50 [9]: > 11.1 µM | selectivity ratio [3]: 2.38 | pIC50 (Leishmania donovani [5]): 5.29 | IC90 (Leishmania donovani [5]): 15.5 µM

SMILES: CC(=O)O[C@@H]1CCC(C)(C)[C@@]23C=C[C@@](C)(OO2)O[C@@]13C (racemic)
pIC50 (Leishmania donovani [5]): < 4.00 | IC90 (Leishmania donovani [5]): > 100 µM

pIC50 (Leishmania donovani [5]): 6.72 | IC90 (Leishmania donovani [5]): 0.41 µM
SMILES: C[C@@H]1[C@H](O)[C@@H](C)/C=C/C=C/C=C/C=C/C=C/C=C/C=C/[C@H](O[C@@H]2O[C@H](C)[C@@H](O)[C@H](N)[C@@H]2O)C[C@@H]2O[C@](O)(C[C@@H](O)C[C@@H](O)[C@H](O)CC[C@@H](O)C[C@@H](O)CC(=O)O[C@H]1C)C[C@H](O)[C@H]2C(=O)O [AMPHOTERICIN B]

SMILES: C[C@@H]1CC[C@H]2[C@@H](C)C(=O)O[C@@H]3O[C@@]4(C)CC[C@@H]1[C@]32OO4 [ARTEMISININ]
pIC50 (Leishmania donovani [5]): < 4.00

pIC50 (Trypanosoma cruzi [4]): 4.89 | pIC50 (Leishmania donovani [5]): 4.92 | pIC50 (Trypanosoma cruzi [6]): 5.03
SMILES: C[C@H]1[C@H](OC(=O)CCC(=O)O)O[C@@H]2O[C@@]3(C)CC[C@H]4[C@H](C)CC[C@@H]1[C@@]24OO3 [ARTESUNATE]

pIC50 (Trypanosoma cruzi [4]): 4.83 | pIC50 (Trypanosoma cruzi [6]): 4.49
SMILES: O=C(Cn1ccnc1[N+](=O)[O-])NCc1ccccc1 [BENZNIDAZOLE]

IC90 (Leishmania donovani [5]): 5.29 µM
SMILES: N=C(N)c1ccc(OCCCCCOc2ccc(C(=N)N)cc2)cc1 [PENTAMIDINE]

Source: ChEMBL document CHEMBL4725366, “Expanding the scope of synthetic 1,2,4-trioxanes towards Trypanosoma cruzi and Leishmania donovani” (Bioorg Med Chem Lett, 2020)
